Values of other authors as cited in paper PMC10329973 (Clinical pharmacology in drug development, 2023).

Key:
[1] = tested on: depressed individuals; details: study in depressed individuals; cited from earlier work
[2] = tested on: blood pressure; details: cited from earlier work

Row | Structure (SMILES) | dissociative effects [1] | off-target cardiovascular effects [2]
1 | C[C@@H]([C@@H](O)c1ccc(O)cc1)N1CCC(O)(c2ccccc2)CC1 [CP-101,606, traxoprodil] | ketamine-like dissociative effects were noted | 
2 | Cc1ccc(COC(=O)N2CC[C@H](CNc3ncccn3)[C@H](F)C2)cc1 [MK-0657] |  | increased blood pressure
